Reference: PubChem BioAssay (NCI)
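Dose response: 5 concentrations. Exposure: 48 h. Format: 96-well plates. Endpoint: linear interpolation; highest concentration if not reached. GI50 = concentration required for 50% inhibition of growth. TGI: concentration producing complete growth inhibition.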

Legend:
Assay in all cases: NCI anticancer screen, dose series, 48 h
CCRF-CEM leukemia = tested on: CCRF-CEM leukemia
OVCAR-8 ovarian = tested on: OVCAR-8 ovarian
IGROV1 ovarian = tested on: IGROV1 ovarian
PC-3 prostate = tested on: PC-3 prostate
OVCAR-4 ovarian = tested on: OVCAR-4 ovarian
SF-268 CNS = tested on: SF-268 CNS
TK-10 renal = tested on: TK-10 renal
MCF7 breast = tested on: MCF7 breast
OVCAR-3 ovarian = tested on: OVCAR-3 ovarian
SF-539 CNS = tested on: SF-539 CNS

| SMILES | GI50 (CCRF-CEM leukemia) | TGI (CCRF-CEM leukemia) | GI50 (OVCAR-8 ovarian) | TGI (OVCAR-8 ovarian) | GI50 (IGROV1 ovarian) | TGI (IGROV1 ovarian) | GI50 (PC-3 prostate) | TGI (PC-3 prostate) | GI50 (OVCAR-4 ovarian) | TGI (OVCAR-4 ovarian) | GI50 (SF-268 CNS) | TGI (SF-268 CNS) | GI50 (TK-10 renal) | TGI (TK-10 renal) | GI50 (MCF7 breast) | TGI (MCF7 breast) | GI50 (OVCAR-3 ovarian) | TGI (OVCAR-3 ovarian) | GI50 (SF-539 CNS) | TGI (SF-539 CNS) |
| --- | --- | --- | --- | --- | --- | --- | --- | --- | --- | --- | --- | --- | --- | --- | --- | --- | --- | --- | --- | --- |
| COc1ccc([C@H]2[C@@H](F)C(=O)N2c2cc(OC)c(OC)c(OC)c2)cc1F | 0.0471 µM | > 100 µM | 0.368 µM | > 100 µM | 0.0946 µM | > 100 µM | 0.042 µM | > 100 µM | 0.966 µM | > 100 µM | 0.324 µM | > 100 µM | 38.6 µM | > 100 µM | 0.0364 µM | > 100 µM | 0.0465 µM | 0.492 µM | 0.028 µM | 0.217 µM |
| NC1(C(=O)OCc2ccccc2)CCCC1 |  | > 100 µM |  | 37.4 µM |  | 38.8 µM |  | > 100 µM |  | 37.3 µM |  | 31.4 µM |  | > 100 µM |  | > 100 µM |  | 28.7 µM |  | 31.7 µM |
| CC(=O)OC1=CC(n2cc(F)c(=O)[nH]c2=O)OC(C)C1=O (configuration not stated) |  | > 100 µM |  | > 100 µM |  | > 100 µM |  | > 100 µM |  | > 100 µM |  | > 100 µM |  | > 100 µM |  | > 76.2 µM |  | > 100 µM |  | 29 µM |
| COc1ccc(-c2nnc(COc3ccc(NC(=O)Nc4cc(C(F)(F)F)cc(C(F)(F)F)c4)cc3F)o2)cc1 | 2.86 µM | 11.6 µM | 1.89 µM | 5.85 µM | 2.95 µM | 10.9 µM | 1 µM | 4.34 µM | 2.29 µM | 8.53 µM | 3.04 µM | 9.94 µM | 3.49 µM | 12.4 µM | 2 µM | 5.04 µM | 1.5 µM | 4.66 µM | 2.09 µM | 5.28 µM |
| COc1ccc(/C=C(/C#N)n2nnc3cccc(F)c32)cc1 | 0.949 µM | > 100 µM | 1.97 µM | > 100 µM | 0.759 µM | 16.3 µM | 1.63 µM | > 100 µM | 2 µM | > 100 µM | 2.31 µM | > 100 µM | 3.18 µM | 47.2 µM | 0.524 µM | > 100 µM | 0.316 µM | 0.899 µM | 1.62 µM | 4.06 µM |
| COc1c(Cl)c(=O)oc2ccc(Cl)cc12 |  | > 100 µM |  | > 100 µM |  | > 100 µM |  | > 100 µM |  | > 100 µM |  | > 100 µM |  | > 100 µM |  | > 100 µM |  | > 100 µM |  | > 100 µM |
| NS(=O)(=O)c1cc(Br)c(N=Nc2ccc(O)c3ncccc23)c(Br)c1 |  | 6.74 µM |  | > 100 µM |  | > 100 µM |  | > 100 µM |  | > 100 µM |  | > 100 µM |  | > 100 µM |  | 38.5 µM |  | > 100 µM |  | > 100 µM |
| CC[C@H](Nc1ncnc2nc[nH]c12)c1oc2ccccc2c(=O)c1-c1cccc(F)c1 | 23.3 µM | > 100 µM | 31.9 µM | > 100 µM | 15.2 µM | 53.8 µM | 12.4 µM | > 100 µM | 23.1 µM | > 100 µM | 22.6 µM | > 100 µM | 19.5 µM | 95.6 µM | 21.1 µM | > 100 µM | 18.3 µM | > 100 µM | 31.4 µM | > 100 µM |
| Cc1cccc(NC(=O)Cn2cnc3sc(C(=O)OC(C)C)c(C)c3c2=O)c1 | > 50 µM | > 50 µM | 17.4 µM | > 50 µM | 16.3 µM | > 50 µM | > 50 µM | > 50 µM |  |  | 18.8 µM | > 50 µM | 16.7 µM | > 50 µM | 38.2 µM | > 50 µM | 33.4 µM | > 50 µM | 8.77 µM | 21.5 µM |
| CCN1CCN(c2nc(C)cc(N(CCNc3ccnc4cc(Cl)ccc34)Cc3ccc4c(c3)OCO4)n2)CC1 | 2.12 µM | 5.88 µM | 2.69 µM | 7.9 µM | 2.36 µM | 7.78 µM | 3.22 µM | 13.4 µM | 2.58 µM | 11.4 µM | 2.09 µM | 5.81 µM | 1.66 µM | 3.16 µM | 1.98 µM | 5.89 µM | 2.28 µM | 7.02 µM | 1.7 µM | 3.18 µM |
| Nc1ncnc2n[nH]c(Nc3ccc(F)cc3)c12 | 18.4 µM | 72.4 µM | 22.5 µM | > 100 µM | 4.73 µM | 32.1 µM | 20.8 µM | > 100 µM | 19 µM | 75.2 µM | 28.7 µM | > 100 µM | 25.4 µM | > 100 µM | 27.7 µM | 89.3 µM | 30.8 µM | > 100 µM | 23.6 µM | > 100 µM |
| O=C(/C=C/c1ccc(Cl)cc1)c1ccc(Nc2ccnc3cc(Cl)ccc23)cc1 | 7.3 µM | > 100 µM | > 100 µM | > 100 µM | 48.6 µM | > 100 µM | > 53.6 µM | > 100 µM | > 100 µM | > 100 µM | > 84 µM | > 100 µM | > 84.7 µM | > 100 µM | 1.56 µM | > 100 µM | 32 µM | > 100 µM | > 63.3 µM | > 100 µM |
| COC(=O)C1=C(C)NC(C)=C(C(=O)OCCCN2CCC(c3ccccc3)(c3ccccc3)CC2)C1c1cccc([N+](=O)[O-])c1 (configuration not stated) |  | > 100 µM |  | 3.39 µM |  | 3.21 µM |  | 3.05 µM |  | 2.98 µM |  | 3.47 µM |  | 7.34 µM |  | 3.74 µM |  | 2.8 µM |  | 3.27 µM |
| OC(c1nc2ccccc2[nH]1)C(O)C(O)C(O)c1nc2ccccc2[nH]1 (configuration not stated) |  |  |  | > 100 µM |  | > 100 µM |  | > 100 µM |  | > 100 µM |  | > 100 µM |  | > 100 µM |  | > 100 µM |  | > 100 µM |  | > 100 µM |
